From patent US11110070B2 (priority 2015, dated 2021) come the findings set out here.

The assay relates to 129S6/SvEvTac mice. In words: Forced swim test (FST) in social defeat (SD) model. It is filed as in vivo. The protocol: Experiment 1 (Pre-ketamine in social defeat (SD)): At 8 weeks of age, a single injection of saline (0.9% NaCl) or ketamine (K) (10, 30, or 90 mg kg^−1) (Ketaset III, Ketamine HCl, Fort Dodge Animal Health, Forth Dodge, Iowa) was administered. Ketamine was prepared in physiological saline and all injections were administered intraperitoneally (i.p.) in volumes of 0.1 cc per […]. […] At 9 weeks of age, 1 week following this injection, SD was started.
24 h after the last bout of SD, a single injection of saline or ketamine (30 mg kg^−1) was administered (mice were 11 weeks old). The forced swim test (PST) was administered 2 h following the injection.
Experiment 3 (Pre-fluoxetine in SD): At 6 weeks of age, fluoxetine hydrochloride (Fix) (BioTrend Chemicals AG, B6197) was administered in the drinking water (18 mg kg^−1/day) for 3 weeks before the start of SD. Starting at 9 weeks of age, SD was then administered for 2 weeks without vehicle or Flx in the drinking water.
Adult aggressor CD-1 male mice were single-housed in Macrolon® polycarbonate resin cages (15.25 in×7.8 in×9.5 in) (Animal Care Systems, Inc., Centennial, Colo.). Male 129S6/SvEvTac mice (9 weeks of age) were subsequently placed into the resident. CD-1 mouse's cage. Three antagonistic encounters were allowed between the CD-1 mouse and the intruder. Each of these encounters typically lasted less than 5 min. Following the encounters, mice were separated by a polished stainless steel cage divider (Animal Care Systems, Inc., Centennial, Colo., P/N C79171), which allowed for olfactory and auditory communication, but limited visual or tactile contact. The partition was removed daily for 2 weeks and 3 antagonistic encounters were allowed between the mice each day. This procedure consistently yielded a submissive phenotype in the experimental intruder mice. Control (Ctrl) mice were group housed 4 to 5 per cage in Macrolon® polycarbonate resin cages without dividers.
The FST was administered as previously described (A11). Briefly, mice were placed into clear plastic buckets 20 cm in diameter and 23 cm deep filled ⅔ of the way with 22° C. water. Mice were videotaped, from the side for 6 min and were exposed to the swim test on 2 consecutive days. For the SI) experiments, scoring was performed using an automated Viewpoint Videotrack software package (http://www.viewpoint.fr/en/a/anxiety-and-depression). For the CORT experiments, automated scoring was done using the automated X'PERT EST software suite (Bioseb, Vitrolles, France). The dependent variable was immobility.

Entries after “also recorded” stand apart in the source; their conditions may differ.

For the molecule `CNC1(c2ccccc2Cl)CCCCC1=O` (racemic) [ketamine, (RS)-2-(2-chlorophenyl)-2-(methylamino)cyclohexanone], the “immobility time, day 2 of FST” value (Ctrl (group housed) mice, ketamine 30 mg kg^−1 single i.p. injection, vs Ctrl-Sal) is recorded as “equal levels of immobility time; also recorded: did not differ from each other”; the “immobility time, day 2 of FST” value (Ctrl mice, ketamine 30 mg kg^−1 in the post-SD design) is “did not display different immobility time”; the “immobility time, day 2 of FST” value (SD mice, ketamine 30 mg kg^−1 single injection 1 week before 2 weeks of SD, vs SD-Sal) is recorded as “significantly decreased immobility time; also recorded: significantly less immobility time”. Besides, the “immobility time in FST” value (SD mice, ketamine 10 mg kg^−1 before SD, vs SD-Sal) is “did not differ in immobility time” and the “immobility time in FST” value (SD mice, ketamine 90 mg kg^−1 before SD, vs SD-Sal) is on record as “did not differ in immobility time”. Further, the “average immobility time for minutes 3 to 6 of FST” value (SD mice, ketamine 30 mg kg^−1 before SD, vs SD-Sal) is “less than the SD-Sal mice; also recorded: decreased immobility”. Besides, the “persistence of ketamine-induced resilience post-injection” value (SD model) was “at least 3 weeks”. Besides, the “dose found to be effective in the SD paradigm” value (doses tested 10, 30, 90 mg kg^−1) came to 30 mg/kg. For the same molecule, the “immobility time, minutes 3 to 6 averaged” value (ketamine given after SD) is listed as “did not decrease immobility time”.
